Test results from US20070004758A1, “COMPOSITIONS AND TREATMENTS FOR INHIBITING KINASE AND/OR HMG-COA REDUCTASE” (priority 2004, published 2007).
Counter-ions that a name gives are not always drawn.

Legend:
[1] = test system: oxazolone-induced mouse ear swelling; assay: Model for inhibition of topical inflammation (oxazolone-induced mouse ear swelling); type: in vivo, BALB/c male mice; settings: topical to right ear, ear thickness 24 hours after challenge
Description: Left ears were untreated. The thickness of both ears of each animal was measured with a Dyer model micrometer gauge 24 hours after oxazolone challenge, and the net increase in thickness of right ears versus left ears was calculated for each animal. Percent inhibition was calculated according to the formula: [(Iv−It)/Iv]×100, where Iv and It respectively refer to the average net increase in right ear thickness (mm) for vehicle and candidate compound treated mice.

[2] = test system: LPS-induced TNF-α release from human peripheral blood mononuclear cells; assay: Whole cell LPS-stimulated TNF-α release assay; type: cell-based; settings: Table III; inhibition of LPS-induced TNF-α release from human PBMC by 50%
Description: The procedure as described in Welker et al., Int. Arch. Allergy and Immunol. 109:110-115 (1996) can be followed. Briefly, a candidate compound and/or vehicle can be preincubated with human peripheral blood mononuclear leukocytes (PBML, 5×10^5/ml) cells in AIM-V medium pH 7.4 for 2 hours. Lipopolysaccharide (LPS, 25 ng/ml) can be added to stimulate the cells, which can be incubated overnight at 37° C. TNF-α cytokine levels in the conditioned medium can then be quantitated using a sandwich ELISA kit.

Structure (SMILES): CC(C)c1nc(N(C)S(C)(=O)=O)nc(-c2ccc(F)cc2)c1/C=C/[C@@H](O)C[C@@H](O)CC(=O)O [Rosuvastatin sodium]
- % Inh. of oxazolone-induced mouse ear swelling ([1]; dose 2 × 0.3 mg): 20%

Structure (SMILES): O=C(O)C[C@H](O)C[C@H](O)/C=C/c1cnn(-c2ccnc(Nc3ccccc3)n2)c1-c1cccc(C(F)(F)F)c1 [Example 11g, (3R,5S,E)-3,5-dihydroxy-7-(1-(2-(phenylamino)pyrimidin-4-yl)-5-(3-(trifluoromethyl)phenyl)-1H-pyrazol-4-yl)hept-6-enoic acid calcium salt]
- IC50 [2]: 52 µM

Structure (SMILES): CC(C)c1c(C(=O)Nc2ccccc2)c(-c2ccccc2)c(-c2ccc(F)cc2)n1CC[C@@H](O)C[C@@H](O)CC(=O)O [Atorvastatin sodium]
- % Inh. of oxazolone-induced mouse ear swelling ([1]; dose 2 × 0.3 mg): 9%
- % Inh. of oxazolone-induced mouse ear swelling ([1]; dose 2 × 1 mg): 31%
- % Inh. of oxazolone-induced mouse ear swelling ([1]; dose 2 × 2 mg): 63%

Structure (SMILES): CC(C)n1c(/C=C/C(O)CC(O)CC(=O)O)c(-c2ccc(F)cc2)c2ccccc21 (stereo not drawn) [Fluvastatin sodium]
- % Inh. of oxazolone-induced mouse ear swelling ([1]; dose 2 × 0.3 mg): 28%

Structure (SMILES): O=C(O)C[C@H](O)C[C@H](O)/C=C/c1c(-c2ccccc2)nn(-c2ccnc(Nc3ccccc3)n2)c1-c1ccccc1 [Example 11a, (3R,5S,E)-7-(3,5-diphenyl-1-(2-(phenylamino)pyrimidin-4-yl)-1H-pyrazol-4-yl)-3,5-dihydroxyhept-6-enoic Acid Calcium Salt]
- IC50 [2]: 31 µM

Structure (SMILES): O=C([O-])C[C@H](O)C[C@H](O)/C=C/c1c(C2CC2)nc2ccccc2c1-c1ccc(F)cc1.O=C([O-])C[C@H](O)C[C@H](O)/C=C/c1c(C2CC2)nc2ccccc2c1-c1ccc(F)cc1.[Ca+2] [Pitavastatin calcium]
- % Inh. of oxazolone-induced mouse ear swelling ([1]; dose 2 × 0.3 mg): 9%
- % Inh. of oxazolone-induced mouse ear swelling ([1]; dose 2 × 2 mg): 60%
